{
  "source": "paper PMC6403188",
  "about": "“Species-Specific Structural Requirements of Alpha-Branched Trehalose Diester Mincle Agonists” (Frontiers in Immunology, 2019)",
  "key": {"human Mincle": {"biological_target": "T1, human Mincle (Homo sapiens, UniProt Q9ULY5)", "T1 construct": "host or cells: HEK (HEK-Blue) cells with NF-κB-driven SEAP reporter", "T1 sequence (Q9ULY5 1-219)": "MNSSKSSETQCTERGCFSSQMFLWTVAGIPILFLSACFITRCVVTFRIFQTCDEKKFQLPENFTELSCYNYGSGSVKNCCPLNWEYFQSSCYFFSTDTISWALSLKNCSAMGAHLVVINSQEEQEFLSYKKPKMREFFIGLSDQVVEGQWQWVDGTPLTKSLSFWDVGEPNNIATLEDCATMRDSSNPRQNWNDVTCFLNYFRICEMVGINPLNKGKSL", "experiment": "HEK cells expressing human Mincle with NF-κB-driven SEAP reporter", "type": "cell-based", "details": "plate-coated compound, 24 h", "procedure": "(§1) Human and mouse Mincle expressing HEK cells were obtained from Invivogen (San Diego, CA). Cells were cultured according to the manufactures instructions in DMEM with 10% FBS, 50 U/ml penicillin, […] streptomycin, […] Normocin, 2 mM L-glutamine, 30 μg/ml blasticidin, 1 μg/ml puromycin and 1x HEK-Blue™ CLR Selection. For assay, indicated compounds were serially diluted in diluent (50%IPA/50% isooctane), 20 μl of a 10x final concentration were applied to the bottom of a 96-well tissue culture plate and the solvent was evaporated for >1 h in a biosafety hood. HEK cells were applied to the plates at a density of 3 × 10^5 cells/well and incubated for 18–24 h at 37°C. Cell supernatants were harvested and analyzed via the manufacturer's instructions using Hek-Blue^TM Detection. SEAP activity was assessed by reading the optical density (OD) at 620–655 nm with a microplate reader; data are expressed as the fold change in OD over vehicle treated cells.\n(§2) To investigate the capacity of these molecules to bind to and activate the Mincle receptor, we used human embryonic kidney (HEK) cells expressing the human or mouse Mincle receptor along with an NF-κB-driven secreted embryonic alkaline phosphatase (SEAP) reporter. Many of the αTDE compounds were able to induce production of SEAP in a dose dependent manner (Figure 2). HEK null cells (HEK cells containing the NF-kB reporter without Mincle receptor) were used as a negative controls to confirm the receptor specificity of the compounds in HEK cells expressing human or mouse Mincle reporter (Supplemental Figure 4). […] The relative activity of TDM and TDB in the human and mouse HEK cells is consistent with the results reported by others ([20]). […] This synthetic version is a shorter chain version of the lipid-derived one reported to be “human-specific” ([28]).\n(§3) Figure 2 Activation of human or mouse Mincle in response to synthetic αTDE compounds. The indicated compounds were dissolved in 50% isopropanol/isooctane, serially diluted in vehicle and then dried to the bottom of a tissue culture plate. HEK cells transfected with human (A–C) or mouse (D–F) Mincle and an NF-κB-driven SEAP reporter were incubated with the compounds for 24 h followed by assessment of the supernatants for SEAP levels. Data are represented as fold change in OD650 over vehicle treated cells. Graphs are mean values from three independent experiments ± SEM. Table in (G) represents the average calculated EC50 and average max SEAP value (± SD, n = 3) for each compound in each cell line. […]"}, "mouse Mincle": {"biological_target": "T2, mouse Mincle (Mus musculus, UniProt Q9R0Q8)", "T2 construct": "host or cells: HEK (HEK-Blue) cells with NF-κB-driven SEAP reporter", "T2 sequence (Q9R0Q8 1-214)": "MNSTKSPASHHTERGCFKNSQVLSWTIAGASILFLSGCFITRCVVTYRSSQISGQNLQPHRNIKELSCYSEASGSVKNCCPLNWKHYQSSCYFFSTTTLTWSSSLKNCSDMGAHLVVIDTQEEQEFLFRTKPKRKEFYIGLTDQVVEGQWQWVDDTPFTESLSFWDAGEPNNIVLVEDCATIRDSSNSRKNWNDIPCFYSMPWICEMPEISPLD", "experiment": "HEK cells expressing mouse Mincle with NF-κB-driven SEAP reporter", "type": "cell-based", "procedure": "as §1, §2, §3"}},
  "data": [
    {"smiles": "CCCCCCCCCCCCCCCCCCCCCC(=O)OC[C@H]1O[C@H](O[C@H]2O[C@H](COC(=O)CCCCCCCCCCCCCCCCCCCCC)[C@@H](O)[C@H](O)[C@H]2O)[C@H](O)[C@@H](O)[C@@H]1O", "note": "[TDB, trehalose dibehenate, reference compound]", "values": [
      {"measurement": "SEAP induction / activation of human Mincle-expressing HEK cells (in words)", "setting": "human Mincle", "result": "robust ability to activate"},
      {"measurement": "Relative activity in mouse vs. human Mincle HEK cells", "setting": "mouse Mincle; comparison of mouse and human Mincle receptor transfected HEK cells", "result": "more potent in the mouse vs. the human"},
      {"measurement": "SEAP induction / activation of mouse Mincle-expressing HEK cells (in words)", "setting": "mouse Mincle; plate-coated compound, 24 h", "result": "robust ability to activate"}
    ]}
  ]
}
